Literature values as cited in patent publication US20230218596A1 (MEREO BIOPHARMA 4 LIMITED, priority 2020, published 2023).
Where two headings read alike, the source gives them in different places.

Key:
[1] = test system: NE from other species, including mice; conditions: cited from earlier work
NE [2] = biological target: T1, NE (Homo sapiens, UniProt P08246); conditions: whole-blood assay; cited from earlier work
bronchiectasis = bronchiectasis patients, 4-week duration; cited from earlier work
ARDS = conditions: experimental models of ARDS; cited from earlier work
cystic fibrosis = cystic fibrosis patients, 4-week duration; cited from earlier work
NE [3] = biological target: T1, NE; conditions: cell-associated assay; cited from earlier work
human NE = biological target: T2, human NE (Homo sapiens, UniProt P08246); conditions: cited from earlier work
T2 sequence (P08246 30-267): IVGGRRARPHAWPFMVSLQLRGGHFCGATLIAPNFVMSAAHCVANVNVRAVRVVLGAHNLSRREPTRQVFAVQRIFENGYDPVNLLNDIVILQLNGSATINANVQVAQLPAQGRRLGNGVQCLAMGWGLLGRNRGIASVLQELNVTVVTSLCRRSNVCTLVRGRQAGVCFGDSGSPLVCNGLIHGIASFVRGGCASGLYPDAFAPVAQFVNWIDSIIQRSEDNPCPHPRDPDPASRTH

SMILES: Cc1c(-c2ccnn2C)cc(C(=O)NCc2ccc(S(C)(=O)=O)cn2)c(=O)n1-c1cccc(C(F)(F)F)c1 [Alvelestat, N-{[5-(methanesulfonyl)pyridin-2-yl]methyl}-6-methyl-5-(1-methyl-1H-pyrazol-5-yl)-2-oxo-1-[3-(trifluoromethyl)phenyl]-1,2-dihydropyridine-3-carboxamide]
- crossover potency for NE from other species [1]: good crossover potency
- IC50 (NE [2]): 44 nM
- lung function and inflammation (bronchiectasis): clinically significant improvement
- lung inflammation and injury (ARDS): protected the lung from inflammation and injury
- biomarkers of elastase activity and inflammation (cystic fibrosis): significant decrease
- IC50 (NE [3]): 48 nM
- reversibility of inhibition (human NE): rapidly reversible
